The text below walks through data of patent US20110306597A1, “Nicotinamide Derivatives” (priority 2008, published 2011).

Sequence of human recombinant H-PGDS (O60760 whole entry): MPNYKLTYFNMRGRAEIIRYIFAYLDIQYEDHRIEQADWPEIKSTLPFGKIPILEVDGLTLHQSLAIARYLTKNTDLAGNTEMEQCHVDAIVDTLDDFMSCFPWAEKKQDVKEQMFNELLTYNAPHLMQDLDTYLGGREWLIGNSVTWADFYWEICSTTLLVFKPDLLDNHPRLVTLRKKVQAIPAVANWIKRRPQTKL

For this assay, the target named is human recombinant H-PGDS (Homo sapiens, UniProt O60760). Briefly: Fluorescence Intensity h-PGDS TBA Enzyme Assay. The format is biochemical. The following applies: 1:175,000 human recombinant H-PGDS, highest inhibitor concentration typically 1 μM. An outline of the steps:
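Recombinant human H-PGDS preincubated 10 min at room temperature with inhibitor in 100 mM Tris pH 8.0, 100 μM MgCl2, 2.5 mM glutathione, 0.5% DMSO; 5.0 μM PGH2 added, stopped after 42 s with FeCl2/citric acid. Remaining PGH2 measured as MDA–TBA fluorescence (ex 530/em 565 nm); IC50 by 4-parameter fit, 11 concentrations.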
As to `O=C(NCC1CCCN(C2CCOCC2)C1)c1ccc(-c2cccc(F)c2)nc1` (centres unmarked) [Example 110, 6-(3-Fluorophenyl)-N-{[1-(tetrahydro-2H-pyran-4-yl)piperidin-3-yl]methyl}nicotinamide], the IC50 came out at 87.1 nM. For `CN1CCN(CCCNC(=O)c2ccc(-c3cccc(F)c3)nc2)CC1` [Example 111, 6-(3-Fluorophenyl)-N-[3-(4-methylpiperazin-1-yl)propyl]nicotinamide] the value was 108 nM; for `Cc1cc(=O)[nH]c(N2CCCC(CNC(=O)c3ccc(-c4cccc(F)c4)nc3)C2)n1` (centres unmarked) [Example 112, 6-(3-Fluorophenyl)-N-{[1-(4-methyl-6-oxo-1,6-dihydropyrimidin-2-yl)piperidin-3-yl]methyl}nicotinamide], 29.2 nM. Then `CN1CCC(CNC(=O)c2ccc(-c3cccc(F)c3)nc2)CC1` [Example 113, 6-(3-Fluorophenyl)-N-[(1-methylpiperidin-4-yl)methyl]nicotinamide], with 149 nM; and `CCN1CCCC(CNC(=O)c2ccc(-c3cccc(F)c3)nc2)C1` (centres unmarked) [Example 114, N-[(1-Ethylpiperidin-3-yl)methyl]-6-(3-fluorophenyl)nicotinamide], with 236 nM; and `Cc1cc(O)nc(CNC(=O)c2ccc(-c3cccc(F)c3)nc2)n1` [Example 115, 6-(3-Fluorophenyl)-N-[(4-hydroxy-6-methylpyrimidin-2-yl)methyl]nicotinamide], with 95 nM.

In the case of `CC(C)N1CCCC(CNC(=O)c2ccc(-c3cccc(F)c3)nc2)C1` (centres unmarked) [Example 116, 6-(3-Fluorophenyl)-N-[(1-isopropylpiperidin-3-yl)methyl]nicotinamide], the IC50 was determined as 163 nM. As for `CC(C)N1CCC(CNC(=O)c2ccc(-c3cccc(F)c3)nc2)CC1` [Example 117, 6-(3-Fluorophenyl)-N-[(1-isopropylpiperidin-4-yl)methyl]nicotinamide], the IC50 came to 108 nM.

As to `O=C(NCCCc1ccccn1)c1ccc(-c2cccc(F)c2)nc1` [Example 118, 6-(3-Fluorophenyl)-N-(3-pyridin-2-ylpropyl)nicotinamide], the IC50 worked out at 5.3 nM.

Take `Cc1nccn1CCNC(=O)c1ccc(-c2cccc(F)c2)nc1` [Example 119, 6-(3-Fluorophenyl)-N-[2-(2-methyl-1H-imidazol-1-yl)ethyl]nicotinamide]: the IC50 was found to be 59.8 nM.

In the case of `O=C(NC1C(=O)NCCc2ccccc21)c1ccc(-c2cccc(F)c2)nc1` (centres unmarked) [Example 120, 6-(3-Fluorophenyl)-N-(2-oxo-2,3,4,5-tetrahydro-1H-3-benzazepin-1-yl)nicotinamide], the IC50 was 67.3 nM. For `CN1CCC(O)(CNC(=O)c2ccc(-c3cccc(F)c3)nc2)CC1` [Example 121, 6-(3-Fluorophenyl)-N-[(4-hydroxy-1-methylpiperidin-4-yl)methyl]nicotinamide] the value was 129 nM; for `Cc1cc(-c2cnc(C(C)(C)C)nc2CNC(=O)c2ccc(-c3cccc(F)c3)nc2)on1` [Example 122, N-{[2-tert-Butyl-5-(3-methylisoxazol-5-yl)pyrimidin-4-yl]methyl}-6-(3-fluorophenyl)nicotinamide], greater than 1000 nM; for `O=C(NC(c1cccc(Cl)c1)c1nn[nH]n1)c1ccc(-c2cccc(F)c2)nc1` (centres unmarked) [Example 123, N-[(3-Chlorophenyl)(2H-tetrazol-5-yl)methyl]-6-(3-fluorophenyl)nicotinamide], 15.6 nM. For `Cc1cc(C(F)(F)F)nc(CCNC(=O)c2ccc(-c3cccc(F)c3)nc2)n1` [Example 124, 6-(3-Fluorophenyl)-N-{2-[4-methyl-6-(trifluoromethyl)pyrimidin-2-yl]ethyl}nicotinamide] the value was 18.3 nM; for `Cc1c(C(C)NC(=O)c2ccc(-c3cccc(F)c3)nc2)cnn1C` (centres unmarked) [Example 125, N-[1-(1,5-Dimethyl-1H-pyrazol-4-yl)ethyl]-6-(3-fluorophenyl)nicotinamide], 23.9 nM. For `CC(Cn1cccn1)NC(=O)c1ccc(-c2cccc(F)c2)nc1` (centres unmarked) [Example 126, 6-(3-Fluorophenyl)-N-[1-methyl-2-(1H-pyrazol-1-yl)ethyl]nicotinamide] the value was 33.8 nM.
